The values that follow come from patent US20190375708A1 (VenatoRx Pharmaceuticals, Inc., priority 2018, published 2019).

Data set [1] concerns HBV replication in HepAD38 cells. In words: Anti-HBV replication assay in HepAD38 cells (QPCR of extracellular HBV DNA). The class given is cell-based, HBV (genotype D, serotype ayw). The settings on record: Hepatitis B virus, 168 h, 7 days incubation, extracellular HBV DNA by QPCR, read-out: Anti-HBV EC50. The essentials: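 Stably transfected HepG2-derived HepAD38 cells express HBV (genotype D, ayw) once tetracycline is withdrawn. Compounds act for 7 days, after which secreted HBV DNA is quantified by QPCR relative to DMSO-treated wells.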

Data set [2] is described as follows: In vitro cytotoxicity assay (MTT cell viability) in HepG2 cells. The format is cell-based, human. The settings on record: human. The essentials: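 Parental HepG2 cells in EMEM + 10% FBS were exposed to compounds (8 half-log dilutions, 30 μM to 1.0 nM) for 7 days at 37 °C, 5% CO2. MTT was then added for 3-4 h, formazan dissolved in DMSO and absorbance read at 492 nm; CC50 came from 4-parameter fits against vehicle controls.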

As usually defined, the EC50 is the concentration that produces a half-maximal response. Broadly, the CC50 is the concentration at which the toxic effect on the cells reaches its halfway point. The low end stands for greater toxicity to the cells, the high end for lower toxicity to the cells.

For the molecule `Cc1cc(NC(=O)c2c(Cl)c(C(=O)C(=O)NC3(CO)CCC3)n3c2CCC3)ccc1F` [Example 541, 6-chloro-N-(4-fluoro-3-methylphenyl)-5-(2-((1-(hydroxymethyl)cyclobutyl)amino)-2-oxoacetyl)-2,3-dihydro-1H-pyrrolizine-7-carboxamide], in data set [1], the EC50 was less than 0.05 µM. This molecule also returned a half-maximal cytotoxic concentration (CC50) at 7 days in data set [2] greater than 30 µM.

For `COc1c(C(=O)Nc2ccc(F)c(F)c2)c(C)n(C)c1C(=O)C(=O)NC1(C)CC(F)(F)C1` [Example 379, 5-(2-((3,3-difluoro-1-methylcyclobutyl)amino)-2-oxoacetyl)-N-(3,4-difluorophenyl)-4-methoxy-1,2-dimethyl-1H-pyrrole-3-carboxamide], the EC50 in data set [1] is 0.05 to 0.499 µM. In data set [2], the CC50 at 7 days was greater than 30 µM.

For the molecule `Cc1cc(NC(=O)c2c(C)c(C(=O)C(=O)N3CCc4nc(N)sc4C3)n(C)c2C)ccc1F` [Example 49, 5-(2-(2-amino-6,7-dihydrothiazolo[5,4-c]pyridin-5(4H)-yl)-2-oxoacetyl)-N-(4-fluoro-3-methylphenyl)-1,2,4-trimethyl-1H-pyrrole-3-carboxamide], the EC50 in data set [1] was in the range of 0.05 to 0.499 µM. The CC50 at 7 days in data set [2] was greater than 30 µM.

As for `Cc1c(C(=O)Nc2cccc(Cl)c2)c(C)n(C)c1C(=O)C(=O)NC(C)(C)CN1CCOCC1` [Example 601, N-(3-chlorophenyl)-1,2,4-trimethyl-5-(2-((2-methyl-1-morpholinopropan-2-yl)amino)-2-oxoacetyl)-1H-pyrrole-3-carboxamide], the EC50 in data set [1] was less than 0.05 µM. Moreover, the CC50 at 7 days in data set [2] was greater than 30 µM.

For the molecule `O=C(N[C@H]1C[C@H](O)C1)C(=O)c1c(Cl)c(C(=O)Nc2ccc(F)c(Cl)c2)c2n1CCC2` [Example 555, 6-chloro-N-(3-chloro-4-fluorophenyl)-5-(2-(((1r,3r)-3-hydroxycyclobutyl)amino)-2-oxoacetyl)-2,3-dihydro-1H-pyrrolizine-7-carboxamide], the EC50 in data set [1] lay within 0.05 to 0.499 µM. The CC50 at 7 days in data set [2] lay in the range of 5 to 30 µM.

Regarding `Cc1cc(NC(=O)c2c(C)c(C(=O)C(=O)Nc3ccc4c(c3)COB4O)n(C)c2C)ccc1F` [Example 678, N-(4-fluoro-3-methylphenyl)-5-(2-((1-hydroxy-1,3-dihydrobenzo[c][1,2]oxaborol-5-yl)amino)-2-oxoacetyl)-1,2,4-trimethyl-1H-pyrrole-3-carboxamide], the EC50 in data set [1] is less than 0.05 µM. The molecule further gave a CC50 at 7 days in data set [2] of 5 to 30 µM.

As to `Cc1cc(NC(=O)c2cc(C(=O)C(=O)NC3(CO)CCC3)n3c2CCCC3)ccc1F` [Example 410, N-(4-fluoro-3-methylphenyl)-3-(2-((1-(hydroxymethyl)cyclobutyl)amino)-2-oxoacetyl)-5,6,7,8-tetrahydroindolizine-1-carboxamide], the EC50 in data set [1] lay within 0.05 to 0.499 µM. The molecule also came in with a CC50 at 7 days in data set [2] greater than 30 µM.

In the case of `Cc1cc(NC(=O)c2c(C)c(C(=O)C(=O)NC(C)(C)C(F)(F)F)n(C)c2C)ccc1F` [Example 9, N-(4-fluoro-3-methylphenyl)-1,2,4-trimethyl-5-(2-oxo-2-((1,1,1-trifluoro-2-methylpropan-2-yl)amino)acetyl)-1H-pyrrole-3-carboxamide], in data set [1], the EC50 is less than 0.05 µM. In data set [2], this molecule yielded a CC50 at 7 days greater than 30 µM.

Consider `Cc1nnc(NC(=O)C(=O)c2c(C)c(C(=O)Nc3ccc(F)c(C)c3)c(C)n2C)o1` [Example 305, N-(4-fluoro-3-methylphenyl)-1,2,4-trimethyl-5-(2-((5-methyl-1,3,4-oxadiazol-2-yl)amino)-2-oxoacetyl)-1H-pyrrole-3-carboxamide], for which, in data set [1], the EC50 is greater than 1 µM. In addition, the CC50 at 7 days in data set [2] was greater than 30 µM.

With `Cc1cc(NC(=O)c2c(C)c(C(=O)C(=O)NCC(C)(C)O)n(C)c2C)cnc1F` [Example 183, N-(6-fluoro-5-methylpyridin-3-yl)-5-(2-((2-hydroxy-2-methylpropyl)amino)-2-oxoacetyl)-1,2,4-trimethyl-1H-pyrrole-3-carboxamide], the EC50 in data set [1] is 0.5 to 1 µM. Also, the CC50 at 7 days in data set [2] was greater than 30 µM.

As for `Cc1cc(NC(=O)c2c(C)c(C(=O)C(=O)NC(C)(C)CO)n(CCF)c2C)cnc1F` [Example 222, N-(6-fluoro-5-methylpyridin-3-yl)-1-(2-fluoroethyl)-5-(2-((1-hydroxy-2-methylpropan-2-yl)amino)-2-oxoacetyl)-2,4-dimethyl-1H-pyrrole-3-carboxamide], the EC50 in data set [1] was greater than 1 µM. The molecule also registered a CC50 at 7 days in data set [2] greater than 30 µM.

In the case of `Cc1cc(NC(=O)c2cc(C(=O)C(=O)NC(C)(C)C)n3c2CN(S(C)(=O)=O)CC3)ccc1F` [Example 589, 6-(2-(tert-butylamino)-2-oxoacetyl)-N-(4-fluoro-3-methylphenyl)-2-(methylsulfonyl)-1,2,3,4-tetrahydropyrrolo[1,2-a]pyrazine-8-carboxamide], the EC50 in data set [1] is 0.5 to 1 µM. Also, in data set [2], the CC50 at 7 days is greater than 30 µM.

Consider `COCC(C)(C)NC(=O)C(=O)c1c(C)c(C(=O)Nc2cnc(F)c(C)c2)c(C)n1C` [Example 167, N-(6-fluoro-5-methylpyridin-3-yl)-5-(2-((1-methyoxy-2-methylpropan-2-yl)amino)-2-oxoacetyl)-1,2,4-trimethyl-1H-pyrrole-3-carboxamide], for which the EC50 in data set [1] was less than 0.05 µM. In addition, the CC50 at 7 days in data set [2] is greater than 30 µM.

Consider `CNC(=O)[C@@H](NC(=O)C(=O)c1c(C)c(C(=O)Nc2ccc(F)c(C)c2)c(C)n1C)C1CC1` [Example 123, (S)-5-(2-((1-cyclopropyl-2-(methylamino)-2-oxoethyl)amino)-2-oxoacetyl)-N-(4-fluoro-3-methylphenyl)-1,2,4-trimethyl-1H-pyrrole-3-carboxamide], for which, in data set [1], the EC50 fell in the range of 0.05 to 0.499 µM. The molecule also came in with a CC50 at 7 days in data set [2] greater than 30 µM.

`Cc1cc(NC(=O)c2c(C)c(C(=O)C(=O)Nc3ccn(C)n3)n(C)c2C)ccc1F` [Example 306, N-(4-fluoro-3-methylphenyl)-1,2,4-trimethyl-5-(2-((1-methyl-1H-pyrazol-3-yl)amino)-2-oxoacetyl)-1H-pyrrole-3-carboxamide]: the EC50 in data set [1] was less than 0.05 µM. Besides, the CC50 at 7 days in data set [2] was greater than 30 µM.

On to `Cc1noc(C(NC(=O)C(=O)c2c(C)c(C(=O)Nc3ccc(F)c(C)c3)c(C)n2C)C(C)C)n1` (stereo not drawn) [Example 81, N-(4-fluoro-3-methylphenyl)-1,2,4-trimethyl-5-(2-((2-methyl-1-(3-methyl-1,2,4-oxadiazol-5-yl)propyl)amino)-2-oxoacetyl)-1H-pyrrole-3-carboxamide], for which the EC50 in data set [1] is less than 0.05 µM. The same molecule registered a CC50 at 7 days in data set [2] greater than 30 µM.

For the molecule `Cc1c(C(=O)Nc2ccc(F)c(F)c2)c2n(c1C(=O)C(=O)NC1(c3nn[nH]n3)CCCC1)CCCC2` [Example 743, 3-(22-((1-(2H-tetrazol-5-yl)cyclopentyl)amino)-2-oxoacetyl)-N-(3,4-difluorophenyl)-2-methyl-5,6,7,8-tetrahydroindolizine-1-carboxamide], the concentration for a half-maximal effect (EC50) in data set [1] is 0.05 to 0.499 µM. The same molecule came in with a CC50 at 7 days in data set [2] greater than 30 µM.

Turning to `Cc1cc(NC(=O)c2c(C)c(C(=O)C(=O)NC(C)(C)CF)n(C)c2C)ccc1F` [Example 6, 5-(2-((1-fluoro-2-methylpropan-2-yl)amino)-2-oxoacetyl)-N-(4-fluoro-3-methylphenyl)-1,2,4-trimethyl-1H-pyrrole-3-carboxamide], the half-maximal effective concentration (EC50) in data set [1] is less than 0.05 µM. Also, the cytotoxic concentration (CC50) at 7 days in data set [2] is greater than 30 µM.

As to `CC(C)(CO)NC(=O)C(=O)c1cc(C(=O)Nc2ccc(F)c(Cl)c2)c2n1CCCC2` [Example 427, N-(3-chloro-4-fluorophenyl)-3-(2-((1-hydroxy-2-methylpropan-2-yl)amino)-2-oxoacetyl)-5,6,7,8-tetrahydroindolizine-1-carboxamide], the EC50 in data set [1] is 0.05 to 0.499 µM. In addition, the CC50 at 7 days in data set [2] is greater than 30 µM.

On to `Cc1noc([C@@H](NC(=O)C(=O)c2c(Cl)c(C(=O)Nc3ccc(F)c(C)c3)c3n2CCCC3)C(C)C)n1` [Example 493, (S)-2-chloro-N-(4-fluoro-3-methylphenyl)-3-(2-((2-methyl-1-(3-methyl-1,2,4-oxadiazol-5-yl)propyl)amino)-2-oxoacetyl)-5,6,7,8-tetrahydroindolizine-1-carboxamide], for which, in data set [1], the concentration giving a half-maximal response (EC50) is less than 0.05 µM. Moreover, in data set [2], the CC50 at 7 days is 5 to 30 µM.

Turning to `Cc1cc(NC(=O)c2c(C)c(C(=O)C(=O)NC34CC5CC(CC(O)(C5)C3)C4)n(C)c2C)ccc1F` [Example 15, N-(4-fluoro-3-methylphenyl)-5-(2-(((1r,3s,5R,7S)-3-hydroxyadamantan-1-yl)amino)-2-oxoacetyl)-1,2,4-trimethyl-1H-pyrrole-3-carboxamide], the EC50 in data set [1] was less than 0.05 µM. The same molecule yielded a CC50 at 7 days in data set [2] greater than 30 µM.

For `Cc1cc(NC(=O)c2c(C)c(C(=O)C(=O)N[C@@H](C)CO)n(C)c2C)ccc1F` [Example 217, (S)-N-(4-ffluoro-3-methylphenyl)-5-(2-((1-hydroxypropan-2-yl)amino)-2-oxoacetyl)-1,2,4-trimethyl-1H-pyrrole-3-carboxamide], the EC50 in data set [1] is less than 0.05 µM. This molecule yielded a CC50 at 7 days in data set [2] greater than 30 µM.

Take `COCC(C)(C)NC(=O)C(=O)c1c(C)c(C(=O)Nc2ccc(F)c(C)c2)c(C)n1C` [Example 169, N-(4-fluoro-3-methylphenyl)-5-(2-((1-methoxy-2-methylpropan-2-yl)amino)-2-oxoacetyl)-1,2,4-trimethyl-1H-pyrrole-3-carboxamide]: in data set [1], the EC50 was less than 0.05 µM. The same molecule had a 50% cytotoxic concentration (CC50) at 7 days in data set [2] greater than 30 µM.

For the molecule `Cn1cc(C(=O)Nc2ccc(F)c(Cl)c2)cc1C(=O)C(=O)NOC(C)(C)C` [Example 21, 5-(2-(tert-butoxyamino)-2-oxoacetyl)-N-(3-chloro-4-fluorophenyl)-1-methyl-1H-pyrrole-3-carboxamide], in data set [1], the EC50 lay in the range of 0.05 to 0.499 µM. Moreover, the CC50 at 7 days in data set [2] is greater than 30 µM.
